Values joined by “and” are separate entries in the source; they are usually repeats but may differ in a detail not shown here. Equal values may be shown once.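 Exposure lasted 48 hours, with cells grown in 96-well plates and compounds tested at five concentrations. Abbreviation: GI50, concentration required for 50% inhibition of growth. TGI marks complete inhibition of growth.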
Key:
Test in all cases: NCI tumour cell line growth inhibition, 48 h
NCI-H522 lung = system: NCI-H522 lung
NCI-H226 lung = system: NCI-H226 lung
NCI-H460 lung = system: NCI-H460 lung
ACHN renal = system: ACHN renal
HCC-2998 colon = system: HCC-2998 colon
SK-MEL-28 melanoma = system: SK-MEL-28 melanoma
K-562 leukemia = system: K-562 leukemia
A549 NSCLC = system: A549 NSCLC
KM12 colon = system: KM12 colon
SF-268 CNS = system: SF-268 CNS
HT29 colon = system: HT29 colon
RXF 393 renal = system: RXF 393 renal
SK-MEL-2 melanoma = system: SK-MEL-2 melanoma
HOP-62 NSCLC = system: HOP-62 NSCLC
OVCAR-5 ovarian = system: OVCAR-5 ovarian
DU-145 prostate = system: DU-145 prostate
MDA-MB-435 = system: MDA-MB-435
SF-539 CNS = system: SF-539 CNS
UACC-257 melanoma = system: UACC-257 melanoma
NCI-H23 lung = system: NCI-H23 lung
SR leukemia = system: SR leukemia
MDA-MB-231 breast = system: MDA-MB-231 breast
M14 melanoma = system: M14 melanoma
COLO 205 colon = system: COLO 205 colon
SW-620 colon = system: SW-620 colon
PC-3 prostate = system: PC-3 prostate
MDA-MB-468 breast = system: MDA-MB-468 breast
SF-295 CNS = system: SF-295 CNS
U251 CNS = system: U251 CNS
SNB-75 CNS = system: SNB-75 CNS
A498 renal = system: A498 renal
LOX IMVI melanoma = system: LOX IMVI melanoma
HCT-15 colon = system: HCT-15 colon
SNB-19 CNS = system: SNB-19 CNS
OVCAR-3 ovarian = system: OVCAR-3 ovarian
IGROV1 ovarian = system: IGROV1 ovarian
HL-60(TB) leukemia = system: HL-60(TB) leukemia
MCF7 breast = system: MCF7 breast
MOLT-4 leukemia = system: MOLT-4 leukemia
TK-10 renal = system: TK-10 renal
UACC-62 melanoma = system: UACC-62 melanoma
CAKI-1 renal = system: CAKI-1 renal
SK-OV-3 ovarian = system: SK-OV-3 ovarian
T-47D breast = system: T-47D breast
OVCAR-8 ovarian = system: OVCAR-8 ovarian
UO-31 renal = system: UO-31 renal
OVCAR-4 ovarian = system: OVCAR-4 ovarian
EKVX NSCLC = system: EKVX NSCLC
HS 578T breast = system: HS 578T breast
SK-MEL-5 melanoma = system: SK-MEL-5 melanoma
SN12C renal = system: SN12C renal
MALME-3M melanoma = system: MALME-3M melanoma

Structure (SMILES): O=c1oc2ccc(-c3ccc(F)cc3F)cc2c(=O)n1-c1ccc(Cl)c(C(F)(F)F)c1
- GI50 (NCI-H522 lung): 2.52 µM
- TGI (NCI-H522 lung): 7.84 µM
- GI50 (NCI-H226 lung): 2.11 µM
- TGI (NCI-H226 lung): 12.5 µM
- GI50 (NCI-H460 lung): 3.27 µM
- TGI (NCI-H460 lung): 11.2 µM
- GI50 (ACHN renal): 3.24 µM
- TGI (ACHN renal): 12.3 µM
- GI50 (HCC-2998 colon): 3.58 µM
- TGI (HCC-2998 colon): 12.8 µM
- GI50 (SK-MEL-28 melanoma): 4.3 µM
- TGI (SK-MEL-28 melanoma): 15.9 µM
- GI50 (K-562 leukemia): 3.18 µM
- TGI (K-562 leukemia): > 100 µM
- GI50 (A549 NSCLC): 3.53 µM
- TGI (A549 NSCLC): 13.1 µM
- GI50 (KM12 colon): 3.86 µM
- TGI (KM12 colon): 14.8 µM
- GI50 (SF-268 CNS): 3.39 µM
- TGI (SF-268 CNS): 11.9 µM
- GI50 (HT29 colon): 16.7 µM
- TGI (HT29 colon): 31.4 µM
- GI50 (RXF 393 renal): 2.21 µM
- TGI (RXF 393 renal): 6.51 µM
- GI50 (SK-MEL-2 melanoma): 2 µM
- TGI (SK-MEL-2 melanoma): 5.02 µM
- GI50 (HOP-62 NSCLC): 4.18 µM
- TGI (HOP-62 NSCLC): 14.6 µM
- GI50 (OVCAR-5 ovarian): 5.98 µM
- TGI (OVCAR-5 ovarian): 21.4 µM
- GI50 (DU-145 prostate): 4.03 µM
- TGI (DU-145 prostate): 14.3 µM
- GI50 (MDA-MB-435): 3.49 µM
- TGI (MDA-MB-435): 12.6 µM
- GI50 (SF-539 CNS): 3.9 µM
- TGI (SF-539 CNS): 14.7 µM
- GI50 (UACC-257 melanoma): 3.41 µM
- TGI (UACC-257 melanoma): 14.4 µM
- GI50 (NCI-H23 lung): 2.47 µM
- TGI (NCI-H23 lung): 8.59 µM
- GI50 (SR leukemia): 1.79 µM
- TGI (SR leukemia): 5.54 µM
- GI50 (MDA-MB-231 breast): 2.35 µM
- TGI (MDA-MB-231 breast): 6.97 µM
- GI50 (M14 melanoma): 0.0652 µM
- TGI (M14 melanoma): 3.29 µM
- GI50 (COLO 205 colon): 16.5 µM
- TGI (COLO 205 colon): 30.9 µM
- GI50 (SW-620 colon): 3.93 µM
- TGI (SW-620 colon): 14.9 µM
- GI50 (PC-3 prostate): 2.04 µM
- TGI (PC-3 prostate): 10.9 µM
- GI50 (MDA-MB-468 breast): 2.4 µM and 2.82 µM
- TGI (MDA-MB-468 breast): 6.08 µM and 7.81 µM
- GI50 (SF-295 CNS): 7.02 µM
- TGI (SF-295 CNS): 20.5 µM
- GI50 (U251 CNS): 3.23 µM
- TGI (U251 CNS): 11.1 µM
- GI50 (SNB-75 CNS): 2.23 µM
- TGI (SNB-75 CNS): 13.4 µM
- GI50 (A498 renal): 2.95 µM
- TGI (A498 renal): 8.94 µM
- GI50 (LOX IMVI melanoma): 3.9 µM
- TGI (LOX IMVI melanoma): 13.9 µM
- GI50 (HCT-15 colon): 3.19 µM
- TGI (HCT-15 colon): 12.4 µM
- GI50 (SNB-19 CNS): 3.28 µM
- TGI (SNB-19 CNS): 13.4 µM
- GI50 (OVCAR-3 ovarian): 3.22 µM
- TGI (OVCAR-3 ovarian): 11 µM
- GI50 (IGROV1 ovarian): 4.42 µM
- TGI (IGROV1 ovarian): 15.8 µM
- GI50 (HL-60(TB) leukemia): 4.66 µM
- TGI (HL-60(TB) leukemia): 47.2 µM
- GI50 (MCF7 breast): 2.7 µM
- TGI (MCF7 breast): 10.4 µM
- GI50 (MOLT-4 leukemia): 2.85 µM
- TGI (MOLT-4 leukemia): 15 µM
- GI50 (TK-10 renal): 3.98 µM
- TGI (TK-10 renal): 11.7 µM
- GI50 (UACC-62 melanoma): 2.89 µM
- TGI (UACC-62 melanoma): 10.4 µM
- GI50 (CAKI-1 renal): 2.29 µM
- TGI (CAKI-1 renal): 8.98 µM
- GI50 (SK-OV-3 ovarian): 2.3 µM
- TGI (SK-OV-3 ovarian): 6.3 µM
- GI50 (T-47D breast): 2.42 µM
- TGI (T-47D breast): 6.76 µM
- GI50 (OVCAR-8 ovarian): 4.38 µM
- TGI (OVCAR-8 ovarian): 17.9 µM
- GI50 (UO-31 renal): 3.45 µM
- TGI (UO-31 renal): 14 µM
- GI50 (OVCAR-4 ovarian): 4.19 µM
- TGI (OVCAR-4 ovarian): 16.7 µM
- GI50 (EKVX NSCLC): 2.85 µM
- TGI (EKVX NSCLC): 12.2 µM
- GI50 (HS 578T breast): 2.6 µM
- TGI (HS 578T breast): 8.26 µM
- GI50 (SK-MEL-5 melanoma): 1.96 µM
- TGI (SK-MEL-5 melanoma): 4.04 µM
- GI50 (SN12C renal): 2.89 µM
- TGI (SN12C renal): 9.46 µM
- GI50 (MALME-3M melanoma): 2.62 µM
- TGI (MALME-3M melanoma): 7.28 µM

— PubChem BioAssay (NCI)
